According to patent US20220220106A1, “QUINOLINE COMPOUNDS AND PHARMACEUTICAL COMPOSITIONS AND USES THEREOF” (Academy of Military Medical Sciences, priority 2019, published 2022):

Experiments:
Type in all cases: cell-based
[1] = tested on: Enterovirus 71 (EV71) H strain; experiment: In vitro anti-EV71 activity (antiviral activity in RD cells, CellTiter-Glo); conditions: Enterovirus A, 96 h; EV71 H strain, RD cells, 4 days, CellTiter-Glo; read-out: IC50
How it was run: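 RD cells infected with 100TCID50 EV71 in DMEM+2% FBS, with compound in 10-point three-fold dilutions, cultured 4 days at 37° C. Cell viability by CellTiter-Glo luminescence; inhibition rate relative to cell control fitted to S-curve for IC50. TD50 derived likewise; SI=TD50/IC50.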

RD cells = experiment: Detection of cytotoxicity in RD cells (CellTiter-Glo); conditions: 4 days, CellTiter-Glo, median toxic dose
How it was run: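 RD cells (1*10^5/mL) cultured 4 days at 37 °C with 10 compound concentrations from 3-fold dilution of a 400 μM pretreatment solution, final being 0.5 times that. Viability by CellTiter-Glo luminescence versus cell control; TD50 from S-curve fit; SI=TD50/IC50.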

mTORC1 = biological target: T1, mTORC1 (Homo sapiens, UniProt P42345); experiment: Western blot, phosphorylation of Thr389 of p70S6K1 in RD cells (mTORC1 inhibition); conditions: 20 μM, 2 hours, Western blot (FIG. 1)
T1 construct: endogenous in cells; host or cells: RD cells
Method: (§1) In order to test the inhibitory activity of the synthesized compounds on the two mTOR complexes, the inhibitory activity experiments of mTORC1 and mTORC2 were carried out. Since mTORC1 and mTORC2 exerted their function by activating the phosphorylation of downstream substrates, the inhibitory activity of the compounds on mTORC1 and mTORC2 could be determined by detecting the phosphorylation levels of the Thr389 site of mTORC1 downstream substrate p70S6K1 and the Ser473 site of mTORC2 downstream substrate Akt.
(§2) Pretreatment of Compound:
(§3) (1) RD cells were cultured in DMEM medium containing 10% FBS and 1×PS (penicillin and streptomycin were at concentrations 100 IU and 100 μg/mL, respectively) at 37° C. and 5% CO2.
(§4) (2) The RD cells (5×10^5 cells/2 mL medium) were inoculated into a 6-well plate and incubated at 37° C. and 5% CO2 for 24 hours.
(§5) (3) The cells were washed once with PBS, and the cells were cultured in serum-free medium without nutrients overnight.
(§6) (4) Formulation of compounds: […]
(§7) Preparation of insulin medium: Insulin was diluted in DMEM medium containing 10% FBS and 1×PS so that the final concentration of insulin was 167 nM.
(§8) Pretreatment of compound to be tested: The compound was dissolved in DMSO so that the concentration of the test compound was 20 mM, and the compound was diluted in 167 nM insulin medium to reach a concentration of 20 μM.
(§9) Preparation of rapamycin solution: Rapamycin was dissolved in DMSO to a concentration of 10 mM, and the rapamycin was diluted in 167 nM insulin medium to reach a concentration of 20 μM.
(§10) (5) The serum-free medium in each well was removed.
(§11) (6) 2 mL of complete medium containing DMSO was added to each well as a control carrier. The final concentration of DMSO was 0.2%.
(§12) (7) 2 mL of 20 μM rapamycin solution and 20 μM the compound to be tested were added to the designated wells, respectively. The final concentration of DMSO was 0.2%.
(§13) (8) The cells were incubated for 2 hours at 37° C. and 5% CO2.
(§14) Protein extraction and concentration determination:
(§15) (1) The cells were washed once with refrigerated PBS, and then the PBS was discarded.
(§16) (2) 150 μL of cell extraction buffer (RIPA, […], catalog number: C1053) was transferred into each well to lyse the cells, and then the resulting cell solution were incubated on ice for 30 minutes.
(§17) (3) Centrifugation was performed at 14000 rpm (13000× g) for 30 minutes at 4° C.
(§18) (4) The supernatant was transferred into a new eppendorf tube, and the cell lysate was stored at −80° C. before testing.
(§19) (5) The protein concentration was determined by BCA method.
(§20) Preparation of Buffer Solutions:
(§21) (1) 100× Protease inhibitor (Beyotime, catalog number: P1005): 1 mL of redistilled water was added to the protease inhibitor and stirred gently until the solid was completely dissolved.
(§22) (2) Lysis Buffer: […] of 100× protease inhibitor and 2× phosphatase inhibitor Cocktails PhosSTOP (Beyotime, catalog number: P1082) were added to 100 mL of the cell extract, and stirred gently until it was completely dissolved.
(§23) (3) Electrophoresis Running Buffer:
(§24) 10×MOPS buffer: 52.33 g of MOPS, 30.29 g of Tris base, 10 mL of 0.5 mol/L EDTA (pH 8.5) and 5 g of SDS was dissolved in 400 mL of redistilled water, stirred to dissolve, and the pH was adjusted to 7.5, then redistilled water was added again to reach a volume of 500 mL; 1×MOPS: 100 mL of 10×MOPS was diluted with redistilled water to 1000 mL.
(§25) (4) 1× Transfer Buffer: […] of 10× transfer buffer (144 g of glucine, 30.3 g of trisbase, and distilled water were mixed to reach a volume of 1 L) and 400 mL of methanol were dissolved in 1500 mL of redistilled water, and then the redistilled water was added to reach a volume of 2000 mL. […]

mTORC2 = biological target: T2, mTORC2 (Homo sapiens, UniProt P42345); experiment: Western blot, phosphorylation of Ser473 of Akt in RD cells (mTORC2 inhibition); conditions: 20 μM, 2 hours, Western blot (FIG. 1)
T2 construct: endogenous in cells; host or cells: RD cells
Method: as §1, §2, §3, §4, §5, §6, §7, §8, §9, §10, §11, §12, §13, §14, §15, §16, §17, §18, §19, §20, §21, §22, §23, §24, §25

CC(C)C(=O)Nc1ccc(-c2ccc3ncc4ccc(=O)n(-c5cccc(C(F)(F)F)c5)c4c3c2)cn1 [HTL-7-07, 9-[3-(2-isobutyrylamino)pyridyl]-2-oxo-1-[3-(trifluoromethyl)phenyl]-1,2-dihydrobenzo[h][1,6]naphthyridine]
IC50 [1]: 380 ± 390 nM | TD50 (RD cells): 0.46 ± 0.03 µM | p70 phosphorylation expression level (mTORC1): significantly down-regulate | phosphorylation expression level of Akt (mTORC2): significantly down-regulate
